How the values were obtained:
[1] = system: blood vessels of embryonated eggs; test: safety test on blood vessels of embryonated eggs; details: positive comparative group, 0.05 M SDS, 5 eggs
collagen I = test: cell experiments, expression of collagen I; type: cell-based
collagen III = test: cell experiments, expression of collagen III; type: cell-based
collagen XVII = test: cell experiments, expression of collagen XVII; type: cell-based

Row | SMILES | irritation judgement [1] | bleeding of blood vessels of embryonated eggs ([1]; 30 min) | content having a promoting effect on the expression of collagen I (collagen I) | optimal content (highest expression) for collagen I (collagen I) [%] | content having a promoting effect on the expression of collagen III (collagen III) | optimal content (highest expression) for collagen III (collagen III) [%] | content having a promoting effect on the expression of collagen XVII (collagen XVII) | optimal content (highest expression) for collagen XVII (collagen XVII) [%]
1 | CCCCCCCCCCCCOS(=O)(=O)[O-].[Na+] [SDS, sodium dodecyl sulfate] | non-irritants | appear the bleeding phenomenon |  |  |  |  |  | 
2 | CC1(C)[C@@H](O[C@H]2O[C@H](C(=O)[O-])[C@@H](O)[C@H](O)[C@H]2O[C@@H]2O[C@H](C(=O)[O-])[C@@H](O)[C@H](O)[C@H]2O)CC[C@]2(C)[C@H]3C(=O)C=C4[C@@H]5C[C@@](C)(C(=O)O)CC[C@]5(C)CC[C@@]4(C)[C@]3(C)CC[C@@H]12.[K+].[K+] [dipotassium glycyrrhizinate] |  |  | 0.001%-0.1 | 0.01 | 0.001%-0.25 | 0.1 | 0.001%-0.01 | 0.01

Reference: US20240216249A1, “COLLAGEN ACTIVATOR, AND PREPARATION METHOD AND APPLICATION THEREOF” (Hangzhou NUPTEC Rising Bioproducts Incorporation, Ltd., priority 2022, published 2024)
